Measurements as given in ChEMBL document CHEMBL3885881, “DrugMatrix”.

Organism: Rattus norvegicus
Assay: DrugMatrix - Regimen: Daily Repeat
Assay type: toxicity, organism-based, Sprague-Dawley
Parameters: regimen Daily Repeat, gender Male, age 6-8 weeks
Conditions: in vivo, po, route oral GAVAGE, vehicle .5 % CMC; for ABSOLUTE BASOPHIL / ABSOLUTE EOSINOPHIL / ABSOLUTE LYMPHOCYTE / ABSOLUTE MONOCYTE / ABSOLUTE SEGMENTED NEUTROPHIL / BASOPHIL / EOSINOPHIL / ERYTHROCYTE COUNT / HEMATOCRIT / HEMOGLOBIN / LEUKOCYTE COUNT / LYMPHOCYTE / MEAN CORPUSCULAR HEMOGLOBIN / MEAN CORPUSCULAR HEMOGLOBIN CONCENTRATION / MEAN CORPUSCULAR VOLUME / MONOCYTE / NEUTROPHIL / NUCLEATED RED BLOOD CELLS / PLATELET COUNT: tissue Blood; for ALANINE AMINOTRANSFERASE / ALBUMIN / ALKALINE PHOSPHATASE / ASPARTATE AMINOTRANSFERASE / BLOOD UREA NITROGEN / CARBON DIOXIDE / CHLORIDE / CHOLESTEROL / CREATINE PHOSPHOKINASE / CREATININE / GLUCOSE / LACTATE DEHYDROGENASE / LIPASE / PHOSPHORUS / POTASSIUM / SODIUM / TOTAL BILIRUBIN / TOTAL PROTEIN / URIC ACID: tissue Plasma
[1] = 0 mg/kg, 72 h, dose level Control, time 3 day
[2] = 0 mg/kg, 120 h, dose level Control, time 5 day
[3] = 150 mg/kg, 72 h, dose level Low, time 3 day

SMILES: C[C@@H](O)[C@H]1C(=O)N2C(C(=O)O)=C(S[C@@H]3CN[C@H](C(=O)N(C)C)C3)[C@H](C)[C@H]12 [MEROPENEM]
- ABSOLUTE BASOPHIL [1]: 0 CELLS/uL
- ABSOLUTE EOSINOPHIL [1]: 222.83 CELLS/uL
- ABSOLUTE LYMPHOCYTE [1]: 14453 CELLS/uL
- ABSOLUTE MONOCYTE [1]: 0 CELLS/uL
- ABSOLUTE SEGMENTED NEUTROPHIL [1]: 1490.83 CELLS/uL
- BASOPHIL [1]: 0%
- EOSINOPHIL [1]: 1.33%
- ERYTHROCYTE COUNT [1]: 5.76 x10E6/uL
- HEMATOCRIT [1]: 36.52%
- HEMOGLOBIN [1]: 13.45 G/DL
- LEUKOCYTE COUNT [1]: 16.17 x10E3/uL
- LYMPHOCYTE [1]: 89.33%
- MEAN CORPUSCULAR HEMOGLOBIN [1]: 23.37 pg
- MEAN CORPUSCULAR HEMOGLOBIN CONCENTRATION [1]: 36.85 G/DL
- MEAN CORPUSCULAR VOLUME [1]: 63.47 fL
- MONOCYTE [1]: 0%
- NEUTROPHIL [1]: 9.33%
- NUCLEATED RED BLOOD CELLS [1]: 0 /100WBC
- PLATELET COUNT [1]: 1239.5 x10E3/uL
- ALANINE AMINOTRANSFERASE [1]: 43.83 u/L
- ALBUMIN [1]: 4.27 G/DL
- ALKALINE PHOSPHATASE [1]: 398.83 u/L
- ASPARTATE AMINOTRANSFERASE [1]: 81.17 u/L
- BLOOD UREA NITROGEN [1]: 17.67 mg/dL
- CARBON DIOXIDE [1]: 27.5 mmol/L
- CHLORIDE [1]: 99.17 MEQ/L
- CHOLESTEROL [1]: 74 mg/dL
- CREATINE PHOSPHOKINASE [1]: 331.5 u/L
- CREATININE [1]: 0.2 mg/dL
- GLUCOSE [1]: 171.33 mg/dL
- LACTATE DEHYDROGENASE [1]: 241.67 u/L
- LIPASE [1]: 9.5 u/L
- PHOSPHORUS [1]: 12.25 mg/dL
- POTASSIUM [1]: 6.33 MEQ/L
- SODIUM [1]: 141.28 MEQ/L
- TOTAL BILIRUBIN [1]: 0.15 mg/dL
- TOTAL PROTEIN [1]: 5.98 G/DL
- URIC ACID [1]: 1.63 mg/dL
- ABSOLUTE BASOPHIL [2]: 0 CELLS/uL
- ABSOLUTE EOSINOPHIL [2]: 148.67 CELLS/uL
- ABSOLUTE LYMPHOCYTE [2]: 16020.5 CELLS/uL
- ABSOLUTE MONOCYTE [2]: 29.17 CELLS/uL
- ABSOLUTE SEGMENTED NEUTROPHIL [2]: 1468.33 CELLS/uL
- BASOPHIL [2]: 0%
- EOSINOPHIL [2]: 1%
- ERYTHROCYTE COUNT [2]: 5.78 x10E6/uL
- HEMATOCRIT [2]: 35.77%
- HEMOGLOBIN [2]: 13.4 G/DL
- LEUKOCYTE COUNT [2]: 17.67 x10E3/uL
- LYMPHOCYTE [2]: 90.5%
- MEAN CORPUSCULAR HEMOGLOBIN [2]: 23.22 pg
- MEAN CORPUSCULAR HEMOGLOBIN CONCENTRATION [2]: 37.47 G/DL
- MEAN CORPUSCULAR VOLUME [2]: 61.92 fL
- MONOCYTE [2]: 0.17%
- NEUTROPHIL [2]: 8.33%
- NUCLEATED RED BLOOD CELLS [2]: 0.17 /100WBC
- PLATELET COUNT [2]: 1255.5 x10E3/uL
- ALANINE AMINOTRANSFERASE [2]: 46.5 u/L
- ALBUMIN [2]: 4.38 G/DL
- ALKALINE PHOSPHATASE [2]: 336 u/L
- ASPARTATE AMINOTRANSFERASE [2]: 76.5 u/L
- BLOOD UREA NITROGEN [2]: 20 mg/dL
- CARBON DIOXIDE [2]: 27.5 mmol/L
- CHLORIDE [2]: 101 MEQ/L
- CHOLESTEROL [2]: 71.33 mg/dL
- CREATINE PHOSPHOKINASE [2]: 231.83 u/L
- CREATININE [2]: 0.37 mg/dL
- GLUCOSE [2]: 168.83 mg/dL
- LACTATE DEHYDROGENASE [2]: 174 u/L
- LIPASE [2]: 8.67 u/L
- PHOSPHORUS [2]: 11.48 mg/dL
- POTASSIUM [2]: 6.82 MEQ/L
- SODIUM [2]: 143.8 MEQ/L
- TOTAL BILIRUBIN [2]: 0.2 mg/dL
- TOTAL PROTEIN [2]: 5.98 G/DL
- URIC ACID [2]: 1.83 mg/dL
- ABSOLUTE BASOPHIL [3]: 0 CELLS/uL
- ABSOLUTE EOSINOPHIL [3]: 455.67 CELLS/uL
- ABSOLUTE LYMPHOCYTE [3]: 14286.67 CELLS/uL
- ABSOLUTE MONOCYTE [3]: 45.33 CELLS/uL
- ABSOLUTE SEGMENTED NEUTROPHIL [3]: 1912.33 CELLS/uL
- BASOPHIL [3]: 0%
- EOSINOPHIL [3]: 2.67%
- ERYTHROCYTE COUNT [3]: 5.53 x10E6/uL
- HEMATOCRIT [3]: 35.53%
- HEMOGLOBIN [3]: 13.27 G/DL
- LEUKOCYTE COUNT [3]: 16.7 x10E3/uL
- LYMPHOCYTE [3]: 85.67%
- MEAN CORPUSCULAR HEMOGLOBIN [3]: 24.03 pg
- MEAN CORPUSCULAR HEMOGLOBIN CONCENTRATION [3]: 37.37 G/DL
- MEAN CORPUSCULAR VOLUME [3]: 64.3 fL
- MONOCYTE [3]: 0.33%
- NEUTROPHIL [3]: 11.33%
- NUCLEATED RED BLOOD CELLS [3]: 0 /100WBC
- PLATELET COUNT [3]: 1310.33 x10E3/uL
- ALANINE AMINOTRANSFERASE [3]: 52.67 u/L
- ALBUMIN [3]: 4.33 G/DL
- ALKALINE PHOSPHATASE [3]: 370.33 u/L
- ASPARTATE AMINOTRANSFERASE [3]: 85.67 u/L
- BLOOD UREA NITROGEN [3]: 16.33 mg/dL
- CARBON DIOXIDE [3]: 27 mmol/L
- CHLORIDE [3]: 101.33 MEQ/L
- CHOLESTEROL [3]: 78.33 mg/dL
- CREATINE PHOSPHOKINASE [3]: 300.67 u/L
- CREATININE [3]: 0.22 mg/dL
- GLUCOSE [3]: 154.33 mg/dL
- LACTATE DEHYDROGENASE [3]: 406.33 u/L
- LIPASE [3]: 9 u/L
- PHOSPHORUS [3]: 11.9 mg/dL
- POTASSIUM [3]: 6.59 MEQ/L
- SODIUM [3]: 143 MEQ/L
- TOTAL BILIRUBIN [3]: 0.2 mg/dL
- TOTAL PROTEIN [3]: 6.03 G/DL
- URIC ACID [3]: 2 mg/dL
